Source: PubChem BioAssay AID256 (DTP/NCI, 2004)
Values joined by “and” are separate entries in the source; they are usually repeats but may differ in a detail not shown here. Identical values can stand only once. Toxic doses and inconclusive results are not listed.

System: CD2F1 mice, L1210 leukemia ip, survival T/C
Experiment: NCI In Vivo Anticancer Drug Screen. Data for tumor model L1210 Leukemia (intraperitoneal) in CD2F1 (CDF1) mice
Settings: higher = longer survival
Procedure, shortened: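 Vehicle-treated tumor-bearing mice served as controls (C) for compound-treated mice (T). Reported figure is T divided by C.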

[1] = endpoint: mean survival time, dose: 100.0 mg/kg/injection, schedule: Q01DX009 (ip), vehicle: saline with Tween-80
[2] = endpoint: mean survival time, dose: 200.0 mg/kg/injection, schedule: Q01DX009 (ip), vehicle: saline with Tween-80
[3] = endpoint: mean survival time, dose: 400.0 mg/kg/injection, schedule: Q01DX009 (ip), vehicle: saline with Tween-80

`CC(=O)NC(CCC(=O)C=[N+]=N)C(=O)O` (configuration not stated) was tested, and the T/C (endpoint: mean survival time, dose: 0.01 mg/kg/injection, schedule: Q03HX016 (ip), vehicle: saline) was 97 % of control, the T/C (endpoint: mean survival time, dose: 0.03 mg/kg/injection, schedule: Q03HX008 (ip), vehicle: saline) was 95 % of control and the T/C (endpoint: mean survival time, dose: 0.04 mg/kg/injection, schedule: Q03HX016 (ip), vehicle: saline) was 97 % of control. For the same compound, the T/C (endpoint: mean survival time, dose: 0.06 mg/kg/injection, schedule: Q03HX008 (ip), vehicle: saline) was 97 % of control, the T/C (endpoint: mean survival time, dose: 0.06 mg/kg/injection, schedule: Q03HX016 (ip), vehicle: saline) was 94 % of control and the T/C (endpoint: mean survival time, dose: 0.13 mg/kg/injection, schedule: Q01DX005 (iv), vehicle: saline) was 98 % of control. The T/C (endpoint: mean survival time, dose: 0.13 mg/kg/injection, schedule: Q01DX009 (ip), vehicle: saline) was 103 % of control, the T/C (endpoint: mean survival time, dose: 0.13 mg/kg/injection, schedule: Q01DX009 (oral), vehicle: saline) was 102 % of control and the T/C (endpoint: mean survival time, dose: 0.13 mg/kg/injection, schedule: Q03HX008 (ip), vehicle: saline) was 104 % of control. For the same compound, the T/C (endpoint: mean survival time, dose: 0.13 mg/kg/injection, schedule: Q03HX016 (ip), vehicle: saline) was 106 % of control, the T/C (endpoint: mean survival time, dose: 0.13 mg/kg/injection, schedule: Q03HX024 (ip), vehicle: saline) was 90 % of control and the T/C (endpoint: mean survival time, dose: 0.13 mg/kg/injection, schedule: Q04DX003 (ip), vehicle: saline) was 101 % of control. The T/C (endpoint: mean survival time, dose: 0.13 mg/kg/injection, schedule: Q08DX002 (ip), vehicle: saline) was 94 % of control, the T/C (endpoint: mean survival time, dose: 0.25 mg/kg/injection, schedule: Q01DX001 (ip), vehicle: saline) was 92 % of control and the T/C (endpoint: mean survival time, dose: 0.25 mg/kg/injection, schedule: Q01DX001 (iv), vehicle: saline) was 103 % of control. The T/C (endpoint: mean survival time, dose: 0.25 mg/kg/injection, schedule: Q01DX005 (iv), vehicle: saline) was 106 % of control, the T/C (endpoint: mean survival time, dose: 0.25 mg/kg/injection, schedule: Q01DX009 (ip), vehicle: saline) was 112 % of control and the T/C (endpoint: mean survival time, dose: 0.25 mg/kg/injection, schedule: Q01DX009 (oral), vehicle: saline) was 113 % of control. For the same compound, the T/C (endpoint: mean survival time, dose: 0.25 mg/kg/injection, schedule: Q03HX008 (ip), vehicle: saline) was 115 % of control and 122 % of control, the T/C (endpoint: mean survival time, dose: 0.25 mg/kg/injection, schedule: Q03HX024 (ip), vehicle: saline) was 100 % of control and the T/C (endpoint: mean survival time, dose: 0.25 mg/kg/injection, schedule: Q04DX003 (ip), vehicle: saline) was 101 % of control. For the same compound, the T/C (endpoint: mean survival time, dose: 0.25 mg/kg/injection, schedule: Q08DX002 (ip), vehicle: saline) was 97 % of control, the T/C (endpoint: mean survival time, dose: 0.4 mg/kg/injection, schedule: Q01DX009 (ip), vehicle: water) was 166 % of control and the T/C (endpoint: mean survival time, dose: 0.5 mg/kg/injection, schedule: Q01DX001 (ip), vehicle: saline) was 97 % of control. For the same compound, the T/C (endpoint: mean survival time, dose: 0.5 mg/kg/injection, schedule: Q01DX001 (iv), vehicle: saline) was 103 % of control, the T/C (endpoint: mean survival time, dose: 0.5 mg/kg/injection, schedule: Q01DX005 (iv), vehicle: saline) was 118 % of control and the T/C (endpoint: mean survival time, dose: 0.5 mg/kg/injection, schedule: Q04DX003 (ip), vehicle: saline) was 106 % of control. For the same compound, the T/C (endpoint: mean survival time, dose: 0.5 mg/kg/injection, schedule: Q08DX002 (ip), vehicle: saline) was 104 % of control, the T/C (endpoint: mean survival time, dose: 0.8 mg/kg/injection, schedule: Q01DX009 (ip), vehicle: water) was 115 % of control and the T/C (endpoint: mean survival time, dose: 1.0 mg/kg/injection, schedule: Q01DX001 (ip), vehicle: saline) was 106 % of control. The T/C (endpoint: mean survival time, dose: 1.0 mg/kg/injection, schedule: Q01DX001 (iv), vehicle: saline) was 107 % of control, the T/C (endpoint: mean survival time, dose: 1.0 mg/kg/injection, schedule: Q01DX001 (oral), vehicle: saline) was 110 % of control and the T/C (endpoint: mean survival time, dose: 1.0 mg/kg/injection, schedule: Q01DX009 (ip), vehicle: saline) was 119 % of control. The T/C (endpoint: mean survival time, dose: 1.0 mg/kg/injection, schedule: Q01DX009 (oral), vehicle: saline) was 115 % of control, the T/C (endpoint: mean survival time, dose: 1.0 mg/kg/injection, schedule: Q03HX016 (ip), vehicle: saline) was 151 % of control and the T/C (endpoint: mean survival time, dose: 1.0 mg/kg/injection, schedule: Q03HX024 (ip), vehicle: saline) was 181 % of control. For the same compound, the T/C (endpoint: mean survival time, dose: 1.0 mg/kg/injection, schedule: Q04DX003 (ip), vehicle: saline) was 117 % of control, the T/C (endpoint: mean survival time, dose: 1.0 mg/kg/injection, schedule: Q06HX012 (ip), vehicle: saline) was 158 % of control and the T/C (endpoint: mean survival time, dose: 1.0 mg/kg/injection, schedule: Q08DX002 (ip), vehicle: saline) was 111 % of control. For the same compound, the T/C (endpoint: mean survival time, dose: 2.0 mg/kg/injection, schedule: Q01DX001 (ip), vehicle: saline) was 104 % of control and 109 % of control, the T/C (endpoint: mean survival time, dose: 2.0 mg/kg/injection, schedule: Q01DX001 (iv), vehicle: saline) was 107 % of control and the T/C (endpoint: mean survival time, dose: 2.0 mg/kg/injection, schedule: Q01DX001 (oral), vehicle: saline) was 120 % of control. For the same compound, the T/C (endpoint: mean survival time, dose: 2.0 mg/kg/injection, schedule: Q01DX005 (ip), vehicle: saline) was 109 % of control, the T/C (endpoint: mean survival time, dose: 2.0 mg/kg/injection, schedule: Q01DX005 (iv), vehicle: saline) was 120 % of control and the T/C (endpoint: mean survival time, dose: 2.0 mg/kg/injection, schedule: Q03HX016 (ip), vehicle: saline) was 152 % of control. For the same compound, the T/C (endpoint: mean survival time, dose: 2.0 mg/kg/injection, schedule: Q03HX024 (ip), vehicle: saline) was 108 % of control, the T/C (endpoint: mean survival time, dose: 2.0 mg/kg/injection, schedule: Q04DX003 (ip), vehicle: saline) was 121 % of control and 124 % of control and the T/C (endpoint: mean survival time, dose: 2.0 mg/kg/injection, schedule: Q06HX008 (ip), vehicle: saline) was 156 % of control. The T/C (endpoint: mean survival time, dose: 2.0 mg/kg/injection, schedule: Q06HX012 (ip), vehicle: saline) was 151 % of control, the T/C (endpoint: mean survival time, dose: 2.0 mg/kg/injection, schedule: Q08DX002 (ip), vehicle: saline) was 113 % of control and 107 % of control and the T/C (endpoint: mean survival time, dose: 4.0 mg/kg/injection, schedule: Q01DX001 (ip), vehicle: saline) was 112 % of control. For the same compound, the T/C (endpoint: mean survival time, dose: 4.0 mg/kg/injection, schedule: Q01DX001 (iv), vehicle: saline) was 117 % of control, the T/C (endpoint: mean survival time, dose: 4.0 mg/kg/injection, schedule: Q01DX001 (oral), vehicle: saline) was 115 % of control and the T/C (endpoint: mean survival time, dose: 4.0 mg/kg/injection, schedule: Q01DX005 (ip), vehicle: saline) was 102 % of control. The T/C (endpoint: mean survival time, dose: 4.0 mg/kg/injection, schedule: Q06HX008 (ip), vehicle: saline) was 152 % of control, the T/C (endpoint: mean survival time, dose: 4.0 mg/kg/injection, schedule: Q06HX012 (ip), vehicle: saline) was 113 % of control and the T/C (endpoint: mean survival time, dose: 4.0 mg/kg/injection, schedule: Q08DX002 (ip), vehicle: saline) was 111 % of control. For the same compound, the T/C (endpoint: mean survival time, dose: 8.0 mg/kg/injection, schedule: Q01DX001 (ip), vehicle: saline) was 116 % of control, the T/C (endpoint: mean survival time, dose: 8.0 mg/kg/injection, schedule: Q01DX001 (oral), vehicle: saline) was 116 % of control and the T/C (endpoint: mean survival time, dose: 8.0 mg/kg/injection, schedule: Q08DX002 (ip), vehicle: saline) was 114 % of control. For the same compound, the T/C (endpoint: mean survival time, dose: 16.0 mg/kg/injection, schedule: Q04DX003 (ip), vehicle: saline) was 154 % of control.
For `COC(=O)C(C(=O)OC)=C(C(=O)OC)C(=O)OC`, the T/C [1] was 96 % of control, the T/C [2] was 96 % of control and the T/C [3] was 94 % of control.
With `CC(=O)CC(=O)Nc1ccc(N=Nc2ccccc2)cc1` the T/C [1] was 101 % of control and the T/C [2] was 101 % of control.
With `N=c1c2ncn(C3CCCC3)c2ncn1Cc1ccc([N+](=O)[O-])cc1` the T/C (endpoint: mean survival time, dose: 75.0 mg/kg/injection, schedule: Q01DX001 (ip), vehicle: other) was 106 % of control.
In the case of `CC(C)OP(=O)(OCCO)C(Cl)Cl` (configuration not stated), the T/C (endpoint: mean survival time, dose: 100.0 mg/kg/injection, schedule: Q01DX001 (ip), vehicle: saline) is reported as 97 % of control, the T/C (endpoint: mean survival time, dose: 200.0 mg/kg/injection, schedule: Q01DX001 (ip), vehicle: saline) is reported as 94 % of control and the T/C (endpoint: mean survival time, dose: 400.0 mg/kg/injection, schedule: Q01DX001 (ip), vehicle: saline) is reported as 96 % of control.
With `N#CSCc1ccc(CSC#N)c(Br)c1` the T/C (endpoint: mean survival time, dose: 75.0 mg/kg/injection, schedule: Q04DX003 (ip), vehicle: saline) was 102 % of control, the T/C (endpoint: mean survival time, dose: 150.0 mg/kg/injection, schedule: Q04DX003 (ip), vehicle: saline) was 98 % of control and the T/C (endpoint: mean survival time, dose: 300.0 mg/kg/injection, schedule: Q04DX003 (ip), vehicle: saline) was 101 % of control.
In the case of `COP(=O)(OC)OCC1OC(c2n[nH]c(C(N)=O)c2O)C(O)C1O` (configuration not stated), the T/C (endpoint: median survival time, dose: 8.13 mg/kg/injection, schedule: Q01DX005 (ip), vehicle: saline) is reported as 100 % of control, the T/C (endpoint: median survival time, dose: 16.25 mg/kg/injection, schedule: Q01DX005 (ip), vehicle: saline) is reported as 102 % of control and the T/C (endpoint: median survival time, dose: 32.5 mg/kg/injection, schedule: Q01DX005 (ip), vehicle: saline) is reported as 101 % of control. The T/C (endpoint: median survival time, dose: 65.0 mg/kg/injection, schedule: Q01DX005 (ip), vehicle: saline) was 111 % of control and the T/C (endpoint: median survival time, dose: 130.0 mg/kg/injection, schedule: Q01DX005 (ip), vehicle: saline) was 111 % of control.
With `C/C(=N/NC(=O)CC#N)c1ccccc1` the T/C (endpoint: mean survival time, dose: 25.0 mg/kg/injection, schedule: Q01DX009 (ip), vehicle: saline with Tween-80) was 98 % of control, the T/C (endpoint: mean survival time, dose: 50.0 mg/kg/injection, schedule: Q01DX009 (ip), vehicle: saline with Tween-80) was 98 % of control and the T/C [1] was 98 % of control.
`S=c1[nH]ccn1-c1cccc(Br)c1` was tested, and the T/C [1] was 112 % of control, the T/C [2] was 103 % of control and the T/C [3] was 112 % of control.
With `CCCCCCCCCCCC(CCCC)CCCCCCCCCC` (configuration not stated) the T/C (endpoint: mean survival time, dose: 100.0 mg/kg/injection, schedule: Q01DX001 (ip), vehicle: saline sonified) was 96 % of control, the T/C (endpoint: mean survival time, dose: 200.0 mg/kg/injection, schedule: Q01DX001 (ip), vehicle: saline sonified) was 102 % of control and the T/C (endpoint: mean survival time, dose: 400.0 mg/kg/injection, schedule: Q01DX001 (ip), vehicle: saline sonified) was 108 % of control.
